In PubChem BioAssay AID651578 (Southern Research Specialized Biocontainment Screening …, 2012):
The source made the active and inactive calls. The rule behind the calls is not given here.

System: VEEV TC-83 virus titer reduction in cells
Test: VEEV TC-83 titer reduction, cell-based, secondary screen, TC-83 strain, set 4 (AID 651578)
Details: at 5 µM; stronger effect = lower value

Row | SMILES | log virus titer change
1 | O=c1c2cc([N+](=O)[O-])ccc2nc(CN2CCNCC2)n1-c1ccsc1 | -0.997 (inactive)
2 | CCN1CCN(Cc2nc3ccc([N+](=O)[O-])cc3c(=O)n2-c2ccccc2F)CC1 | -3.36
3 | COc1ccc(-n2c(CN3CCNCC3)nc3ccc([N+](=O)[O-])cc3c2=O)cc1 | -7.41
4 | COc1cccc(-n2c(CN3CCNCC3)nc3ccc([N+](=O)[O-])cc3c2=O)c1 | -0.354 (inactive)
